Data on 14 compounds can be found in patent publication US20260209247A1, “Substituted Tricyclic Compounds” (Lupin Limited, priority 2019, published 2026).

Assay [1] concerns the target T1, protein-protein interaction between hSOS1 and hKRASG12C (Homo sapiens, UniProt Q07889).
T1 construct: GST-hSOS1, 564-1049aa expressed and purified in-house
T1 sequence (Q07889 564-1049): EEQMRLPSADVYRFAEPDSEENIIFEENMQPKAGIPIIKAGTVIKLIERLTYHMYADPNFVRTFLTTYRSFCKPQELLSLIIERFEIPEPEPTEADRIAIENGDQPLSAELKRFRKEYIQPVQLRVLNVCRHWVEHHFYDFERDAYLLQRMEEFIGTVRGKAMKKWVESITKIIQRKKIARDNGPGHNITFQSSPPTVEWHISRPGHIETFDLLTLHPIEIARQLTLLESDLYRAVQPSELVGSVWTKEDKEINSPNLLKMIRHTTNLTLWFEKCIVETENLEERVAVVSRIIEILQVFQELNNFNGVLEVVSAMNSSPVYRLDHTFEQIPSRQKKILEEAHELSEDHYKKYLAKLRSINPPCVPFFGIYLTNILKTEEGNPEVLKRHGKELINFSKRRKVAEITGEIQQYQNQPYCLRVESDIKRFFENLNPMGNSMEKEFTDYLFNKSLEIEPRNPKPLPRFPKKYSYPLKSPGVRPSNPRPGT
As to the kind of experiment: KRAS-SOS1 interaction assay (HTRF). As to conditions: GST-hSOS1 564-1049aa, HIS-hKRASG12C, read-out: KRAS-SOS1 Interaction inhibition IC50. The format is binding. The procedure:
Interaction assay was conducted to evaluate the ability of the compounds to disrupt the protein-protein interactions between hSOS1 and hKRASG12C. Inhibitory effect of compounds on GST-hSOS1, 564-1049aa expressed and purified in-house and HIS-hKRASG12C (R06-32DH, SignalChem) interaction was assessed using HTRF detection technology in biochemical assay. Compounds were pre-incubated with 10-50 nM working solution of hSOS1 per well of a 384 well plate (Perkin Elmer, Cat #6007290) for 10 min at 20° C. in the assay buffer containing 5 mM HEPES, pH 7.4, 150 mM NaCl, 10 mM EDTA, 1 mM DTT, 0.05% BSA fraction V and 0.0025% Igepal. Reaction was initiated by adding 100-300 nM working solution of hKRASG12C in assay buffer. Total assay volume was 15 μL. Reaction was continued for 30-60 min at 20° C. Then detection solution containing MAb Anti-GST-d2 (#61GSTDLA, Cisbio BioAssays) and MAb Anti-HIS-Tb (#61HISTLA, Cisbio BioAssays), all prepared in HTRF detection buffer (#61DB10RDF, Cisbio BioAssays) was added and further incubated for 30-60 min at 20° C. HTRF signal was recorded in PHERAStar microplate reader. Ratio of signal obtained at 665 nm and 620 nm was used to compute the percent inhibition of compound utilizing the following formula: […]

The target of assay [2] is T2, nucleotide exchange on hKRASG12C mediated by hSOS1 (Homo sapiens, UniProt Q07889).
T2 construct: HIS-hSOS1, 564-1049aa mediated GTP loading onto GST-hKRASG12C; His (N); made in house
T2 sequence (Q07889 564-1049): T1 sequence (Q07889 564-1049)
As to the kind of experiment: Guanine nucleotide exchange assay (GNEA, HTRF). It is filed as biochemical. As to conditions: HIS-hSOS1 564-1049aa mediated GTP loading onto GST-hKRASG12C 1-169aa, read-out: Guanine nucleotide exchange inhibition IC50. How it is done: Example-154: Guanine nucleotide exchange assay (GNEA) GNEA assay was conducted to evaluate the effects of compounds on the nucleotide exchange on hKRASG12C mediated by hSOS1. Inhibitory effect of compounds on HIS-hSOS1, 564-1049aa mediated GTP loading onto GST-hKRASG12C, 1-169aa both expressed and purified in-house was assessed using HTRF detection technology in biochemical assay. Compounds were pre-incubated with hSOS1 working solution containing 10-50 nM hSOS1 and 200 nM EDA-GTP-DY-647P1 (Custom manufactured, Jena Biosciences) per well of a 384 well plate (Perkin Elmer, Cat #6007290) for 10 min at 20° C. in the assay buffer containing 10 mM HEPES, pH 7.4, 150 mM NaCl, 5 mM MgCl2, 1 mM DTT, 0.05% BSA fraction V and 0.0025% Igepal. Reaction was initiated by adding working solution of hKRASG12C containing 25-125 nM hKRASG12C and MAb Anti-GST-Tb (#61GSTTLA, Cisbio BioAssays) in assay buffer. Total assay volume was 15 μL. Reaction was continued for 30-60 min at 20° C. HTRF signal was recorded in PHERAStar microplate reader. Ratio of signal obtained at 665 nm and 620 nm was used to compute the percent inhibition of compound as follows.

In assay [3] the test system is pERK after EGF stimulation in DLD1 cells. As to the kind of experiment: ERK phosphorylation assay (alphascreen pERK). The format is cell-based. The settings on record: Homo sapiens, DLD-1, 2 h compound, 200 ng/ml hEGF for 5 minutes, read-out: ERK phosphorylation inhibition IC50. The procedure:
Compounds were tested for their ability to inhibit pERK after EGF stimulation in DLD1 cells. Cells were seeded at 0.2 million cells per well in 96 well cell binding tissue culture plate in 100 μL complete media and were allowed to settle overnight (16 to 20 h). On the following day, cells were treated with various concentrations of test compounds for 2 h followed by stimulation with 200 ng/ml hEGF (diluted in PBS) for 5 minutes. Cells were then washed once with PBS and lysed in freshly prepared lysis buffer (provided with alphascreen surefire ERK1/2 p-T202/Y204 assay kit, cat no: TGRESB10K, Perkin Elmer). Lysis was carried out in plate shaker for 10-15 mins. Lysate was transferred to […] white opti-plate (Perkin Elmer) and alphascreen for pERK was carried out as per manufacturer's instructions. Plate was read after 2 h incubation in plate shaker at […] 300 RPM, 25-28° C. The difference between the unstimulated and stimulated Vehicle control is considered as 100% ERK phosphorylation, and % inhibition of compounds is calculated accordingly.

Turning to `COC[C@](C)(O)C(F)(F)c1cccc([C@@H](C)Nc2nc(C)nc3cc4c(cc23)N(C)C(=O)C(C)(C)O4)c1F` (racemic) [Compound 53a, 4—(((R)-1-(3-((S/R)-1,1-difluoro-2-hydroxy-3-methoxy-2-methylpropyl)-2-fluorophenyl)ethyl)amino)-2,6,8,8-tetramethyl-6H-[1,4]oxazino[3,2-g]quinazolin-7(8H)-one], the IC50 in assay [1] is 1 to 10 nM; in assay [2], 1 to 30 nM; in assay [3], 1 to 200 nM.

Consider `Cc1nc(N[C@H](C)c2cccc(C(F)(F)C(C)(C)O)c2F)c2cc3c(cc2n1)N(C)C(=O)C3C` (mixture of isomers) [Compound 95, (R&S)-4-(((R)-1-(3-(1,1-difluoro-2-hydroxy-2-methylpropyl)-2-fluorophenyl)ethyl)amino)-2,6,8-trimethyl-6,8-dihydro-7H-pyrrolo[3,2-g]quinazolin-7-one], for which the IC50 fell in the range of 11 to 25 nM in assay [1], 31 to 130 nM in assay [2] and 1 to 200 nM in assay [3].

Consider `CO[C@]1(C)C(=O)N(C)c2cc3nc(C)nc(N[C@H](C)c4cccc(C(F)(F)C(C)(C)O)c4F)c3cc21` (racemic) [Compound 96a, (S/R)-4-(((R)-1-(3-(1,1-difluoro-2-hydroxy-2-methylpropyl)-2-fluorophenyl)ethyl)amino)-6-methoxy-2,6,8-trimethyl-6,8-dihydro-7H-pyrrolo[3,2-g]quinazolin-7-one], for which the IC50 in assay [1] was in the range of 11 to 25 nM; in assay [2], 31 to 130 nM; in assay [3], 1 to 200 nM.

For `COCC1(C)C(=O)N(C)c2cc3c(N[C@H](C)c4cccc(C(F)(F)C(C)(C)O)c4F)nc(C)nc3cc21` (mixture of isomers) [Compound 98, (R&S)-4-(((R)-1-(3-(1,1-difluoro-2-hydroxy-2-methylpropyl)-2-fluorophenyl)ethyl)amino)-8-(methoxymethyl)-2,6,8-trimethyl-6,8-dihydro-7H-pyrrolo[2,3-g]quinazolin-7-one], the IC50 in assay [1] is 11 to 25 nM; in assay [2], 1 to 30 nM; in assay [3] it was 1 to 200 nM.

Turning to `COC[C@@]1(C)C(=O)N(C)c2cc3c(N[C@H](C)c4cccc(C(F)(F)C(C)(C)O)c4F)nc(C)nc3cc21` (racemic) [Compound 98b, (S/R)-4-(((R)-1-(3-(1,1-difluoro-2-hydroxy-2-methylpropyl)-2-fluorophenyl)ethyl)amino)-8-(methoxymethyl)-2,6,8-trimethyl-6,8-dihydro-7H-pyrrolo[2,3-g]quinazolin-7-one], the IC50 in assay [1] lay within 11 to 25 nM; in assay [2], 31 to 130 nM; in assay [3], 1 to 200 nM.

Turning to `Cc1nc(N[C@H](C)c2cccc(C(F)(F)C(C)(C)O)c2F)c2cc3c(cc2n1)C(C)C(=O)N3C` (mixture of isomers) [Compound 99, (R&S)-4-(((R)-1-(3-(1,1-difluoro-2-hydroxy-2-methylpropyl)-2-fluorophenyl)ethyl)amino)-2,6,8-trimethyl-6,8-dihydro-7H-pyrrolo[2,3-g]quinazolin-7-one], the IC50 in assay [1] lay in the range of 1 to 10 nM; in assay [2], 1 to 30 nM; in assay [3], 1 to 200 nM.

Regarding `CCO[C@]1(C)C(=O)N(C)c2cc3c(N[C@H](C)c4cccc(C(F)(F)C(C)(C)O)c4F)nc(C)nc3cc21` (racemic) [Compound 121b, (S/R)-4-(((R)-1-(3-(1,1-difluoro-2-hydroxy-2-methylpropyl)-2-fluorophenyl)ethyl)amino)-8-ethoxy-2,6,8-trimethyl-6,8-dihydro-7H-pyrrolo[2,3-g]quinazolin-7-one], the IC50 lay in the range of 1 to 10 nM in assay [1], 1 to 30 nM in assay [2] and 1 to 200 nM in assay [3].

Turning to `CO[C@]1(C)C(=O)N(C)c2cc3c(N[C@H](C)c4cccc(C(F)(F)[C@](C)(O)CN(C)C)c4F)nc(C)nc3cc21` (racemic) [Compound 135a, (S/R)-4-(((R)-1-(3-((S/R)-3-(dimethylamino)-1,1-difluoro-2-hydroxy-2-methylpropyl)-2-fluorophenyl)ethyl)amino)-8-methoxy-2,6,8-trimethyl-6,8-dihydro-7H-pyrrolo[2,3-g]quinazolin-7-one], the IC50 in assay [1] lay in the range of 1 to 10 nM; in assay [2], 1 to 30 nM; in assay [3], 1 to 200 nM.

Take `CO[C@]1(C)C(=O)N(C)c2cc3c(N[C@H](C)c4cccc(C(F)(F)[C@@](C)(O)CN(C)C)c4F)nc(C)nc3cc21` (racemic) [Compound 135b, (S/R)-4-(((R)-1-(3-((R/S)-3-(dimethylamino)-1,1-difluoro-2-hydroxy-2-methylpropyl)-2-fluorophenyl)ethyl)amino)-8-methoxy-2,6,8-trimethyl-6,8-dihydro-7H-pyrrolo[2,3-g]quinazolin-7-one]: the results for the IC50 in assay [1], in assay [2] and in assay [3] were 1 to 10 nM, 31 to 130 nM and 1 to 200 nM, respectively.

For `Cc1nc(N[C@H](C)c2cccc(C(F)(F)[C@@](C)(O)CO)c2F)c2cc3c(cc2n1)OC(C)(C)C(=O)N3C` (single isomer, unassigned) [Compound 23a, 4-(((R/S)-1-(3-((S/R)-1,1-difluoro-2,3-dihydroxy-2-methylpropyl)-2-fluorophenyl)ethyl)amino)-2,6,8,8-tetramethyl-6H-[1,4]oxazino[3,2-g]quinazolin-7(8H)-one], the IC50 in assay [1] lay within 1 to 10 nM; in assay [2], 1 to 30 nM; in assay [3] it was 1 to 200 nM.

Turning to `Cc1nc(N[C@H](C)c2cccc(C(F)(F)C(C)(C)O)c2F)c2cc3c(cc2n1)N(C)C(C)C(=O)N3C` (single isomer, unassigned) [Compound 27b], the IC50 in assay [1] is 1 to 10 nM; in assay [2] it was 1 to 30 nM; in assay [3], 1 to 200 nM.

Turning to `Cc1nc(N[C@H](C)c2cccc(C(F)(F)CO)c2F)c2cc3c(cc2n1)O[C@@H](C)C(=O)N3C` (single isomer, unassigned) [Compound 30a], the figures for the 50% inhibitory concentration (IC50) in assay [1], in assay [2] and in assay [3] were 1 to 10 nM, 1 to 30 nM and 1 to 200 nM, respectively.

Regarding `Cc1nc(N[C@H](C)c2cccc(C(F)(F)CO)c2F)c2cc3c(cc2n1)OC(C)C(=O)N3C` (single isomer, unassigned) [Compound 30b], the IC50 in assay [1] lay in the range of 1 to 10 nM; in assay [2], 1 to 30 nM; in assay [3] it was 1 to 200 nM.

In the case of `Cc1nc(N[C@H](C)c2cccc(C(F)(F)C(C)(C)O)c2F)c2cc3c(cc2n1)O[C@@H](C)C(=O)N3C` (single isomer, unassigned) [Compound 31a], the IC50 in assay [1] lay within 1 to 10 nM; in assay [2] it was 1 to 30 nM; in assay [3], 1 to 200 nM.
